Test results reported in US20160331708A1 (priority 2014, published 2016).
Where a name gives a salt, the structure may show the parent alone.

What was measured:
Streptomyces MBT3 = assay: TLC biogram / agar overlay antimicrobial assay of EtOAc extracts of Streptomyces MBT3 cultures treated with plant hormones; assay type: cell-based, Streptomyces sp MBT3 (indicator strain B. subtilis); conditions: methyl-jasmonate 100 μM or salicylic acid 250 μM added to 7 day cultures, 24 hours; B. subtilis indicator
Experimental: All media for growth of Streptomyces are described in (Kieser et al., 2000). For the preparation of Streptomyces cultures, spores were obtained from SFM agar plates and inoculated at a density of 5×10^6 into 20 ml liquid minimal media with mannitol and glycerol as the carbon sources culture media in a 250 ml Erlenmeyer flask and incubated at 30° C. in a rotary shaker (250 rpm). Mycelia were precipitated by centrifugation for 10 minutes at 12,000 g. Each replicate of culture supernatant was extracted twice with an equal amount (40 ml in total) of analytically pure EtOAc (Sigma-Aldrich St. Louis, Mo., USA). Two grams of Na2SO4 was then added into the organic phase to remove remaining water and was evaporated under vacuum at 38° C. Samples were then re-dissolved in Methanol-d4 (99.8%) (Cambridge Isotope Laboratories, Inc., Andover, Mass., USA) for NMR analysis. 1.5 ml of the culture was collected every three hours and centrifuged. […]
Actinomycetes are very abundantly present in the plant rhizosphere. […] The ethyl acetate extract of the culture fluid of MBT3 was analyzed further for metabolic profile and antimicrobial activity against Bacillus subtilis.
Antimicrobial activity of the extracts was analyzed using thin layer chromatography (TLC) biograms. […]

Bacillus subtilis 168 = assay: Antibiotic MIC tests in microtiter plates
Legionella pneumophila = conditions: Sasaki et al., 2012; cited from earlier work

Compound	effect on antimicrobial activity (bioactivity) of MBT3 (Streptomyces MBT3)	MIC (Bacillus subtilis 168; Bacillus subtilis, 168, compound alone (Table 4)) [µg/mL]	growth inhibitory effect (Legionella pneumophila)	activity against B. subtilis (Bacillus subtilis 168; compound itself, at concentrations below 5 mg/ml)
O=C(O)c1ccccc1O [Salicylic acid (sodium salt), Salicylic acid]	no effect	> 1500		
Nc1ccccc1C(=O)O [anthranilic acid]			mild growth inhibitory effect	did not show any activity
CC/C=C\CC1C(=O)CCC1CC(=O)OC (centres unmarked) [methyl jasmonate]	strongly enhanced			
